≈ marks a conversion by molar mass, not a printed value.
How the values were obtained:
Experiment in all cases: MIC, agar dilution test; Denley multipoint inoculation procedure
Assay type in all cases: cell-based
E. coli A 261 = conditions: Escherichia coli, A261, read-out: Minimum inhibitory concentration
Excerpt: (§1) In the table below, the minimum inhibitory concentrations (MIC) with a variety of bacteria for some of the compounds according to the invention are given. |Minimum inhibitory concentrations in mcg/ml in the agar dilution test;

E. coli Neumann = conditions: Escherichia coli, read-out: Minimum inhibitory concentration
Excerpt: as §1

Klebsiella 57 USA = conditions: read-out: Minimum inhibitory concentration
Excerpt: as §1

Klebsiella 6179 = conditions: read-out: Minimum inhibitory concentration
Excerpt: as §1

Klebsiella 8085 = conditions: read-out: Minimum inhibitory concentration
Excerpt: as §1

Proteus morganii 932 = conditions: Morganella morganii, read-out: Minimum inhibitory concentration
Excerpt: as §1

Providencia 12052 = conditions: read-out: Minimum inhibitory concentration
Excerpt: as §1

Staphylococcus 133 = conditions: read-out: Minimum inhibitory concentration
Excerpt: as §1

Staphylococcus 1746 = conditions: read-out: Minimum inhibitory concentration
Excerpt: as §1

Staphylococcus Fk 422 = conditions: FK422, read-out: Minimum inhibitory concentration
Excerpt: as §1

Structure (SMILES) | MIC (E. coli A 261) | MIC (E. coli Neumann) | MIC (Klebsiella 57 USA) | MIC (Klebsiella 6179) | MIC (Klebsiella 8085) | MIC (Proteus morganii 932) | MIC (Providencia 12052) | MIC (Staphylococcus 133) | MIC (Staphylococcus 1746) | MIC (Staphylococcus Fk 422)
O=C(CN1CCN(c2cc3c(cc2F)c(=O)c(C(=O)O)cn3C2CC2)CC1)c1ccc(Cl)cc1 [Example 9] | ≤ 0.015 µg/mL | 0.03 µg/mL (≈ 0.062 µM) | 0.5 µg/mL (≈ 1.03 µM) | 1 µg/mL (≈ 2.07 µM) | 0.125 µg/mL (≈ 0.258 µM) | 0.03 µg/mL (≈ 0.062 µM) | > 128 µg/mL | 2 µg/mL (≈ 4.13 µM) | 2 µg/mL (≈ 4.13 µM) | 2 µg/mL (≈ 4.13 µM)
O=C(CN1CCN(c2cc3c(cc2F)c(=O)c(C(=O)O)cn3C2CC2)CC1)c1ccc(O)cc1O [Example 5] | – | – | – | – | – | – | – | 0.25 µg/mL (≈ 0.519 µM) | 0.25 µg/mL (≈ 0.519 µM) | 0.25 µg/mL (≈ 0.519 µM)
O=C(CN1CCN(c2cc3c(cc2F)c(=O)c(C(=O)O)cn3C2CC2)CC1)c1ccc(F)cc1 [Example 8] | ≤ 0.015 µg/mL | 0.015 µg/mL (≈ 0.0321 µM) | 0.03 µg/mL (≈ 0.0642 µM) | 0.25 µg/mL (≈ 0.535 µM) | 0.03 µg/mL (≈ 0.0642 µM) | ≤ 0.015 µg/mL | 64 µg/mL (≈ 137 µM) | 1 µg/mL (≈ 2.14 µM) | 1 µg/mL (≈ 2.14 µM) | 1 µg/mL (≈ 2.14 µM)

The remaining lines, values ahead:

MIC (E. coli A 261) | MIC (E. coli Neumann) | MIC (Klebsiella 57 USA) | MIC (Klebsiella 6179) | MIC (Klebsiella 8085) | MIC (Proteus morganii 932) | MIC (Providencia 12052) | MIC (Staphylococcus 133) | MIC (Staphylococcus 1746) | MIC (Staphylococcus Fk 422) | Structure (SMILES)
≤ 0.015 µg/mL | ≤ 0.015 µg/mL | 0.06 µg/mL (≈ 0.149 µM) | 0.25 µg/mL (≈ 0.623 µM) | ≤ 0.015 µg/mL | ≤ 0.015 µg/mL | 32 µg/mL (≈ 79.7 µM) | 0.5 µg/mL (≈ 1.25 µM) | 0.5 µg/mL (≈ 1.25 µM) | 0.5 µg/mL (≈ 1.25 µM) | CC(=O)CCN1CCN(c2cc3c(cc2F)c(=O)c(C(=O)O)cn3C2CC2)CC1 [Example 12, 1-cyclopropyl-6-fluoro-1,4-dihydro-4-oxo-7-[4-(3-oxobutyl)-1-piperazinyl]quinoline-3-carboxylic acid]
≤ 0.015 µg/mL | 0.06 µg/mL (≈ 0.155 µM) | 1 µg/mL (≈ 2.58 µM) | 2 µg/mL (≈ 5.16 µM) | 0.06 µg/mL (≈ 0.155 µM) | 0.06 µg/mL (≈ 0.155 µM) | 128 µg/mL (≈ 330 µM) | 0.25 µg/mL (≈ 0.645 µM) | 0.25 µg/mL (≈ 0.645 µM) | 0.25 µg/mL (≈ 0.645 µM) | CC(=O)CN1CCN(c2cc3c(cc2F)c(=O)c(C(=O)O)cn3C2CC2)CC1 [Example 1, 1-cyclopropyl-6-fluoro-1,4-dihydro-4-oxo-7-[4-(2-oxopropyl)-1-piperazinyl]quinoline-3-carboxylic acid]
≤ 0.015 µg/mL | 0.03 µg/mL (≈ 0.0667 µM) | 0.06 µg/mL (≈ 0.133 µM) | 0.5 µg/mL (≈ 1.11 µM) | 0.125 µg/mL (≈ 0.278 µM) | ≤ 0.015 µg/mL | 128 µg/mL (≈ 285 µM) | 2 µg/mL (≈ 4.45 µM) | 1 µg/mL (≈ 2.22 µM) | 2 µg/mL (≈ 4.45 µM) | O=C(CN1CCN(c2cc3c(cc2F)c(=O)c(C(=O)O)cn3C2CC2)CC1)c1ccccc1 [Example 4]
